# Records with an inconclusive call do not appear. Active and inactive are the calls of the source. How the calls were made is not given here.
# Target: Zinc finger protein mex-5 (Caenorhabditis elegans) (UniProt Q9XUB2)
# Assay: potency of MEX-5 RNA-binding blockers – biochemical, fluorescence polarization, dose response (AID 1960)
# Conditions: MEX-5/FITC-TCR2 RNA fluorescence polarization, 1 h
# Zinc finger protein mex-5 (Caenorhabditis elegans), sequence (Q9XUB2 whole entry, looked up): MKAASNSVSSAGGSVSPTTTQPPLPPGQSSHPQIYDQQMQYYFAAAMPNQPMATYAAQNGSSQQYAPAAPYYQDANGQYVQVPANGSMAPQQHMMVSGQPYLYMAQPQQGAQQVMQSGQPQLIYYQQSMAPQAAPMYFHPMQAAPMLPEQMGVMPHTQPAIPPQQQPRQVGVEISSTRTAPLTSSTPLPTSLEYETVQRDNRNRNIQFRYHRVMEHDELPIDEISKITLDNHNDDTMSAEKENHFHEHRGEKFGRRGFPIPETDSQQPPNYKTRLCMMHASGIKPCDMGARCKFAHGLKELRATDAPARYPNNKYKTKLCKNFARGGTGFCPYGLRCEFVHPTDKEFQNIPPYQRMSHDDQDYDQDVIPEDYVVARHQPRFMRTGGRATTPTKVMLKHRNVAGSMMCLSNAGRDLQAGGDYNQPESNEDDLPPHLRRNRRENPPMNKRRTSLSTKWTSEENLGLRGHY
row,Compound,EC50
1,CCC(C)/C=C(C)/C=C/C1=CC2=C(Cl)C(=O)C(C)(OC(C)=O)C(=O)C2=CO1 (centres undefined),> 30 µM (inactive)
2,Cc1cc(/C=C2/C(=O)NC(=O)N(Cc3ccco3)C2=O)c(C)n1-c1ccc(C(=O)O)cc1,> 30 µM (inactive)
3,CC[C@H](C)/C=C(C)/C=C/C1=CC2=C(Cl)C(=O)[C@@](C)(OC(C)=O)C(=O)C2=CO1,17.8 µM
4,CCN(CC)c1ccc(N=Cc2c(O)n(Cc3ccccc3)c(=O)[nH]c2=O)cc1,> 30 µM (inactive)

# — PubChem BioAssay AID1960 (Broad Institute, 2009)
